Reference: patent publication US20110160280A1, “CANCER-RELATED GENES, CDCA5, EPHA7, STK31 AND WDHD1” (Oncotherapy Science, Inc., priority 2007, published 2011)

Key:
[1] = tested on: A549 cells; experiment: RNA interference assay (oligo based): colony formation and MTT assays; type: cell-based, human
[2] = tested on: LC319 cells; experiment: as above; type: cell-based, human
Method: (§1) Small interfering RNA (siRNA) duplexes (Dharmacon, Inc., Lafayette, Colo.) (600 pM) were transfected into lung-cancer cell lines LC319 and A549 for CDCA5; NCI-H520 and SBC-5 for EPHA7; LC319 for WDHD1, and esophageal cancer cell line TE9 for WDHD1 using 30 μl of Lipofectamine 2000 (Invitrogen, Carlsbad, Calif.) following the manufacturer's protocol. The transfected cells were cultured for 7 days, and the number of colonies was counted by Giemsa staining, and viability of cells was evaluated by 3-(4,5-dimethylthiazol-2-yl)-2,5-diphenyltetrazolium bromide (MTT) assay (cell counting kit-8 solution; Dojindo Laboratories, Kumanoto, Japan), at 7 days after transfection. To confirm suppression of gene expression, semiquantitative RT-PCR was carried out with synthesized primers described above.

[3] = tested on: TE9 cells; experiment: as above; type: cell-based, human
Method: as §1

[4] = tested on: WDHD1; experiment: RNA interference assay: WDHD1 knockdown by RT-PCR; type: cell-based, human; settings: A549, LC319 and TE9 cells
Method: Total RNA was extracted from cultured cells using Trizol reagent (Life Technologies, Inc. Gaithersburg, Md.) according to the manufacturer's protocol. Extracted RNAs were treated with DNase I (Nippon Gene, Tokyo, Japan) and reversely-transcribed using oligo (dT) primer and SuperScript II. The primer sets for amplification were as follows:
as §1

[5] = tested on: A549 cells; experiment: Flow cytometry (cell cycle) after si-WDHD1; type: cell-based, human
Method: Cells were collected in PBS, and fixed in 70% cold ethanol for 30 minutes. After treatment with 100 μg/mL RNase (Sigma/Aldrich, St. Louis, Mo.), the cells were stained with 50 μg/mL propidium iodide (Sigma/Aldrich, St.) in PBS. Flow cytometry was done on a Becton Dickinson FACScan and analyzed by ModFit software (Verity Software House, Inc., Topsham, Me.). The cells selected from at least 20,000 ungated cells were analyzed for DNA content.

[6] = tested on: A549 cells; experiment: Time-lapse imaging (live cell imaging) after siRNA for WDHD1; type: cell-based, human; settings: control cells divided about every 10 hours
Method: Cells were grown on a 35 mm glass-bottom dish in phenol red-free Dulbecco's modified Eagle's medium containing 10% fetal bovine serum (FBS). Cells were transfected with siRNA and subjected to time-lapse imaging using a computer-assisted fluorescence microscope (Olympus, LCV100) equipped with an objective lens (Olympus, UAPO 40×/340 N.A.=0.90), a halogen lamp, a red LED (620 nm), a CCD camera (Olympus, DP30), differential interference contrast (DIC) optical components, and interference filters. For DIC imaging, the red LED was used with a filter cube containing an analyzer. Image acquisition and analysis were performed by using MetaMorph 6.13 software (Universal Imaging, Media, Pa.).

[7] = tested on: mitotic cells; experiment: Immunocytochemical analysis of mitotic cells after siRNA for WDHD1; type: cell-based; settings: control si-LUC: normal metaphase figures
Method: Cultured cells were washed twice with PBS(−), fixed in 4% formaldehyde solution for 30 min at room temperature and then rendered permeable with PBS(−) containing 0.1% Triton X-100 for 3 min at room temperature. Nonspecific binding was blocked by Casblock (ZYMED, San Francisco, Calif.) for 10 min at room temperature for CDCA5 and WDHD1, by Casblock (ZYMED, San Francisco, Calif.) for 7 min at room temperature for EPHA7, 3% bovine serum albumin in PBS(−) for 7 min at room temperature for STK31. Cells were then incubated for 60 min (for CDCA5, EPHA7 or STK31) or 10 min (for WDHD1) at room temperature with primary antibodies diluted in PBS containing 3% BSA. After being washed with PBS(−), the cells were stained by a donkey anti-rabbit secondary antibody conjugated to Alexa488 (Molecular Probes) (for CDCA5 and EPHA7) or FITC-conjugated secondary antibody (Santa Cruz Biotechnology, Santa Cruz, Calif.) (for STK31 and WDHD1) at 1:1,000 dilutions for 60 min at room temperature. After another wash with PBS(−), each specimen was mounted with Vectashield (Vector Laboratories, Inc., Burlingame, Calif.) containing 4′,6-diamidino-2-phenylindole and visualized with Spectral Confocal Scanning Systems (TSC SP2 AOBS; Leica Microsystems, Wetzlar, Germany).

[8] = synchronized A549 cells after cell cycle release

5′-GGUAAUACGUGGACUCCUA UU-3′ (GGUAAUACGUGGACUCCUAUU; listed as RNA, chemistry not given here) [si-WDHD1-#2]
number of A549 cells (MTT and colony-formation assays), siRNA against WDHD1 [1]: drastic reduction in the number of cells
number of LC319 cells (MTT and colony-formation assays), siRNA against WDHD1 [2]: drastic reduction in the number of cells
number of TE9 cells (MTT and colony-formation assays), siRNA against WDHD1 [3]: drastic reduction in the number of cells
WDHD1 knockdown effect (RT-PCR) [4]: knockdown effect was confirmed
number of cells in S phase ([5]; A549 cells, 24˜72 hours after transfection): continuously decreased
proportion of cells in G0/G1 phase ([5]; A549 cells, 48˜72 hours after transfection): increased
number of cells in G0/G1 phase [5, 8]: increased
progression of S phase [5, 8]: delayed
cell division and cell death (time-lapse microscopy) [6]: divided slowly and died shortly after cell division
chromosome congression in mitotic cells [7]: chromosomes failed to congress at the spindle midzone
